# Test results: patent publication US5495032A, “Process for producing 7-(substituted)-8-(substituted-9-[(substituted glycyl)amido]-6-demethyl-6-deoxytetracyclines” (priority 1994, dated 1996)
# Where a name gives a salt, the structure may show the parent alone. Read-outs that look alike come from different tables or passages of the source.
# Tests used:
# Format in all cases: cell-based
# [1] = tested on: S. aureus ROSE (MP); test: MIC, agar dilution method; conditions: 18 hours at 35° C.
# [2] = tested on: X. maltophilia NEMC 87210; test: MIC, agar dilution method; conditions: Stenotrophomonas maltophilia
# [3] = tested on: E. coli UBMS 89-2 Tet sens; test: MIC, agar dilution method; conditions: 18 hours at 35° C.
# [4] = tested on: S. aureus UBMS 88-7 Tet K; test: microbe, parasite or virus in culture; conditions: 18 hours at 35° C.
# [5] = tested on: E. coli MC 4100 TNIOC Tet B; test: microbe, parasite or virus in culture; conditions: 18 hours at 35° C.
# [6] = tested on: E. coli J3272 Tet C; test: microbe, parasite or virus in culture
# [7] = tested on: E. coli BAJ9003 IMP MUT; test: microbe, parasite or virus in culture; conditions: 18 hours at 35° C.
# [8] = tested on: E. coli PRP1 Tet A; test: microbe, parasite or virus in culture; conditions: 18 hours at 35° C.
# [9] = tested on: S. aureus UBMS 90-2 Tet M; test: microbe, parasite or virus in culture; conditions: 18 hours at 35° C.
# [10] = tested on: S. hemolyticus AVHAH 88-3; test: MIC, agar dilution method
# [11] = tested on: S. aureus UBMS 88-4; test: MIC, agar dilution method
# [12] = tested on: E. coli UBMS 90-5 sens; test: MIC, agar dilution method; conditions: 18 hours at 35° C.
# [13] = tested on: E. coli UBMS 89-1 Tet M; test: microbe, parasite or virus in culture; conditions: 18 hours at 35° C.
# [14] = tested on: S. mariescens FPOR 8733; test: MIC, agar dilution method; conditions: 18 hours at 35° C.
# [15] = tested on: Enterococcus 12201; test: MIC, agar dilution method; conditions: 18 hours at 35° C.
# [16] = tested on: E. coli #311 (MP); test: MIC, agar dilution method; conditions: 18 hours at 35° C.
# [17] = tested on: S. aureus IVES 2943; test: MIC, agar dilution method
# [18] = tested on: S. aureus NEMC 8769; test: MIC, agar dilution method; conditions: Staphylococcus aureus, NEMC8769, 18 h
# [19] = tested on: S. aureus UBMS 90-3; test: MIC, agar dilution method
# [20] = tested on: E. coli J3272 Tet sens; test: MIC, agar dilution method; conditions: Escherichia coli, J3272TETSENS, 18 hours at 35° C.
# [21] = tested on: Ps. acruginosa ATCC 27853; test: MIC, agar dilution method; conditions: Ps. acruginosa ATCC 27853; 18 hours at 35° C.; read-out: MIC
# [22] = tested on: S. aureus SMITH (MP); test: MIC, agar dilution method; conditions: 18 hours at 35° C.
# [23] = tested on: S. aureus ATCC 29213; test: MIC, agar dilution method; conditions: 18 hours at 35° C.
# [24] = tested on: S. aureus UBMS 88-5 Tet M; test: microbe, parasite or virus in culture
# [25] = tested on: S. aureus IVES 1 983; test: MIC, agar dilution method
# [26] = tested on: S. aureus UBMS 90-1 Tet M; test: microbe, parasite or virus in culture; conditions: 18 hours at 35° C.
# [27] = tested on: E. coli ATCC 25922; test: MIC, agar dilution method
# [28] = tested on: E. coli UBMS 88-1 Tet B; test: microbe, parasite or virus in culture; conditions: 18 hours at 35° C.
# [29] = tested on: E. coli J2175; test: MIC, agar dilution method; conditions: 18 hours at 35° C.
# [30] = tested on: E. coli UBMS 90-4 Tet M; test: microbe, parasite or virus in culture; conditions: 18 hours at 35° C.
# [31] = tested on: E. faecalis ATCC 29212; test: MIC, agar dilution method; conditions: Enterococcus faecalis
# [32] = tested on: E. coli J3272 Tet D; test: microbe, parasite or virus in culture
# [33] = tested on: susceptible strains; test: in vitro antibacterial evaluation, susceptible strains; conditions: vs minocycline
# [34] = tested on: tetracycline resistant strains containing the tetM resistance determinant; test: in vitro antibacterial evaluation, tetM strains; conditions: S. aureus UBMS 88-5, 90-1 and 90-2, E. coli UBMS 89-1 and 90-4
# [35] = tested on: E. coli MC 4100 Tet sens.; test: MIC, agar dilution method; conditions: Escherichia coli, 18 hours at 35° C., read-out: MIC
# [36] = Escherichia coli, UBMS892TETSENS, 18 h, read-out: MIC
# [37] = Escherichia coli, J3272TETC, 18 h
# [38] = Escherichia coli, PRP1TETA, 18 h
# [39] = Staphylococcus aureus, UBMS902TETM, 18 h
# [40] = Staphylococcus aureus, UBMS884, 18 hours at 35° C., read-out: MIC
# [41] = Escherichia coli, UBMS905SENS, read-out: MIC
# [42] = Escherichia coli, UBMS891TETM, 18 h
# [43] = Escherichia coli, read-out: MIC
# [44] = Staphylococcus aureus, IVES2943, 18 h
# [45] = Staphylococcus aureus, UBMS885TETM, 18 h
# [46] = Staphylococcus aureus, IVES1983, 18 h
# [47] = Escherichia coli, ATCC25922, 18 hours at 35° C., read-out: MIC
# [48] = Escherichia coli, UBMS881TETB, 18 h
# [49] = Escherichia coli, UBMS904TETM, 18 h
# [50] = ATCC29212, 18 hours at 35° C., read-out: MIC
# [51] = Escherichia coli, J3272TETD, 18 h
# [52] = NEMC87210, 18 hours at 35° C., read-out: MIC
compound,measurement,setting,value
"CN(C)CC(=O)Nc1c(Cl)cc2c(c1O)C(=O)C1=C(O)[C@]3(O)C(=O)C(C(N)=O)=C(O)[C@@H](N(C)C)C3CC1C2 (stereo partly drawn) [A, [4S-(4α,12aα)]-8-Chloro-4-(dimethylamino)-9-[[(dimethylamino)acetyl]amino]-1,4,4a,5,5a,6,11,12a-octahydro-3,10,12,12a-tetrahydroxy-1,11-dioxo-2-naphthacenecarboxamide disulfate]",MIC,[1],16 µg/mL
same,MIC,"[2]; NEMC87210, 18 h, 18 hours at 35° C.",2 µg/mL
same,MIC,[3]; [36],2 µg/mL
same,MIC,[4],2 µg/mL
same,MIC,"[5]; Escherichia coli, 18 h",2 µg/mL
same,MIC,[6]; [37],8 µg/mL
same,MIC,[7],0.25 µg/mL
same,MIC,[8]; [38],4 µg/mL
same,MIC,[9]; [39],0.5 µg/mL
same,MIC,"[10]; Streptococcus pyogenes, AVHAH883, 18 h, 18 hours at 35° C.",1 µg/mL
same,MIC,[11]; [40],0.12 µg/mL
same,MIC,[12]; [41],1 µg/mL
same,MIC,[13]; [42],0.5 µg/mL
same,MIC,[14]; 18 h,16 µg/mL
same,MIC,[15],0.25 µg/mL
same,MIC,[16]; [43],0.5 µg/mL
same,MIC,[17]; [44],4 µg/mL
same,MIC,"[18]; S. aureus NEMC 8769, 18 hours at 35° C.",0.06 µg/mL
same,MIC,"[19]; Staphylococcus aureus, UBMS903, S. aureus UBMS 90-3, 18 hours at 35° C., read-out: MIC",0.12 µg/mL
same,MIC,[20],1 µg/mL
same,MIC,[21],> 32 µg/mL
same,MIC,[22],0.25 µg/mL
same,MIC,[23],0.03 µg/mL
same,MIC,[24]; [45],0.25 µg/mL
same,MIC,[25]; [46],4 µg/mL
same,MIC,[26],0.5 µg/mL
same,MIC,[27]; [47],0.5 µg/mL
same,MIC,[28]; [48],2 µg/mL
same,MIC,[29]; [43],1 µg/mL
same,MIC,[30]; [49],1 µg/mL
same,MIC,[31]; [50],0.12 µg/mL
same,MIC,[32]; [51],0.5 µg/mL
"CN(C)CC(=O)Nc1c(Cl)cc2c(c1O)C(=O)C1=C(O)[C@]3(O)C(=O)C(C(N)=O)=C(O)[C@@H](N(C)C)C3CC1C2 (some centres unmarked) [8-chloro-9-(N,N-dimethylglycylamido)-6-demethyl-6-deoxytetracycline]",effectiveness against susceptible strains compared with minocycline,[33],equally as effective as minocycline
same,in vitro activity against tetracycline resistant strains containing the tetM resistance determinant,[34],good in vitro activity
"CCCNCC(=O)Nc1c(Cl)cc2c(c1O)C(=O)C1=C(O)[C@]3(O)C(=O)C(C(N)=O)=C(O)[C@@H](N(C)C)C3CC1C2 (stereo partly drawn) [F, [4S-(4α,12aα)]-8-Chloro-4-(dimethylamino)-1,4,4a,5,5a,6,11,12a-octahydro-3,10,12,12a-tetrahydroxy-1,11-dioxo-9-[[(propylamino)acetyl]amino]-2-naphthacenecarboxamide dihydrochloride]",MIC,"[1]; Staphylococcus aureus, 18 h",16 µg/mL
same,MIC,[2]; [52],2 µg/mL
same,MIC,[3]; [36],1 µg/mL
same,MIC,"[4]; Staphylococcus aureus, UBMS887TETK, 18 h",8 µg/mL
same,MIC,"[5]; Escherichia coli, 18 h",0.5 µg/mL
same,MIC,[6]; [37],1 µg/mL
same,MIC,"[7]; Escherichia coli, BAJ9003IMPMUT, 18 h",0.12 µg/mL
same,MIC,[8]; [38],4 µg/mL
same,MIC,[9]; [39],0.25 µg/mL
same,MIC,"[10]; Streptococcus pyogenes, AVHAH883, 18 hours at 35° C., read-out: MIC",4 µg/mL
same,MIC,[11]; [40],0.25 µg/mL
same,MIC,[12]; [41],0.5 µg/mL
same,MIC,[13]; [42],0.5 µg/mL
same,MIC,[14]; read-out: MIC,8 µg/mL
same,MIC,"[15]; Enterococcus, 12201, 18 h",0.25 µg/mL
same,MIC,[16]; [43],0.5 µg/mL
same,MIC,[17]; [44],16 µg/mL
same,MIC,[18],0.25 µg/mL
same,MIC,"[19]; Staphylococcus aureus, UBMS903, 18 h",0.5 µg/mL
same,MIC,[35],0.12 µg/mL
same,MIC,[21],32 µg/mL
same,MIC,"[22]; Staphylococcus aureus, 18 h",0.25 µg/mL
same,MIC,"[23]; Staphylococcus aureus, ATCC29213, 18 h",0.25 µg/mL
same,MIC,[24]; [45],0.5 µg/mL
same,MIC,[25]; [46],8 µg/mL
same,MIC,"[26]; Staphylococcus aureus, UBMS901TETM, 18 h",0.5 µg/mL
same,MIC,[27]; [47],0.5 µg/mL
same,MIC,[28]; [48],0.5 µg/mL
same,MIC,[29]; [43],1 µg/mL
same,MIC,[30]; [49],0.5 µg/mL
same,MIC,[31]; [50],0.12 µg/mL
same,MIC,[32]; [51],0.25 µg/mL
"CN(C)CC(=O)Nc1c(Cl)cc2c(c1O)C(=O)C1=C(O)[C@]3(O)C(=O)C(C(N)=O)=C(O)[C@@H](N(C)C)C3CC1C2 (stereo partly drawn) [C, [4S-(4α,12aα)]-8-Chloro-4-(dimethylamino)-9-[[(dimethylamino)acetyl]amino]-1,4,4a,5,5a,6,11,12a-octahydro-3,10,12,12a-tetrahydroxy-1,11-dioxo-2-naphthacenecarboxamide]",MIC,[1],1 µg/mL
same,MIC,[2]; [52],0.05 µg/mL
same,MIC,[3],1 µg/mL
same,MIC,[4],0.25 µg/mL
same,MIC,[5],1 µg/mL
same,MIC,"[6]; E. coli J3272 Tet C, 18 hours at 35° C.",8 µg/mL
same,MIC,[7],0.12 µg/mL
same,MIC,[8],8 µg/mL
same,MIC,[9],1 µg/mL
same,MIC,[10]; 18 hours at 35° C.,0.5 µg/mL
same,MIC,[11]; 18 hours at 35° C.,0.12 µg/mL
same,MIC,[12],1 µg/mL
same,MIC,[13],0.25 µg/mL
same,MIC,[14],8 µg/mL
same,MIC,[15],8 µg/mL
same,MIC,[16],0.5 µg/mL
same,MIC,"[17]; S. aureus IVES 2943, 18 hours at 35° C.",4 µg/mL
same,MIC,[18],0.03 µg/mL
same,MIC,"[19]; S. aureus UBMS 90-3, 18 hours at 35° C.",0.12 µg/mL
same,MIC,[35],0.25 µg/mL
same,MIC,[21],> 32 µg/mL
same,MIC,[22],0.12 µg/mL
same,MIC,[23],0.25 µg/mL
same,MIC,"[24]; S. aureus UBMS 88-5 Tet M, 18 hours at 35° C.",2 µg/mL
same,MIC,"[25]; S. aureus IVES 1 983, 18 hours at 35° C.",4 µg/mL
same,MIC,[26],4 µg/mL
same,MIC,[27]; 18 hours at 35° C.,0.5 µg/mL
same,MIC,[28],1 µg/mL
same,MIC,[29],1 µg/mL
same,MIC,[30],0.5 µg/mL
same,MIC,"[31]; ATCC29212, 18 h, 18 hours at 35° C.",0.5 µg/mL
same,MIC,"[32]; E. coli J3272 Tet D, 18 hours at 35° C.",0.5 µg/mL
